Source: ChEMBL document CHEMBL1201862, “PubChem BioAssay data set” (2004)
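Five compound concentrations were applied to cells in 96-well plates for 48 hours; endpoints were derived by simple linear interpolation of the resulting dose-response curve. Abbreviation: GI50, concentration required for 50% inhibition of growth.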 Calls of active or inactive are those of the source. Rule as the data show it: active = GI50 up to about 1.1 µM and inactive = higher.

How the values were obtained:
Test in all cases: NCI tumour cell line growth inhibition, 48 h
[1] = system: RPMI-8226
[2] = system: UACC-257
[3] = system: CAKI-1
[4] = system: OVCAR-5
[5] = system: A549
[6] = system: EKVX
[7] = system: OVCAR-4
[8] = system: MDA-MB-435
[9] = system: HL-60
[10] = system: SN12C
[11] = system: PC-3
[12] = system: MOLT-4
[13] = system: COLO 205
[14] = system: SNB-19
[15] = system: SW-620
[16] = system: SF-268
[17] = system: HT-29
[18] = system: Malme-3M
[19] = system: HOP-62
[20] = system: SK-MEL-28
[21] = system: Hs-578T
[22] = system: NCI-H23
[23] = system: UACC-62
[24] = system: NCI/ADR-RES
[25] = system: U-251
[26] = system: KM12
[27] = system: RXF 393
[28] = system: MDA-MB-231
[29] = system: ACHN
[30] = system: SR
[31] = system: 786-0
[32] = system: UO-31
[33] = system: SK-OV-3
[34] = system: HCT-15
[35] = system: NCI-H460
[36] = system: LOX IMVI
[37] = system: MCF7
[38] = system: M14
[39] = system: T47D
[40] = system: TK-10
[41] = system: HCT-116
[42] = system: SK-MEL-5
[43] = system: SF-539
[44] = system: HCC 2998
[45] = system: A498
[46] = system: SF-295
[47] = system: CCRF-CEM
[48] = system: OVCAR-8
[49] = system: BT-549
[50] = system: K562
[51] = system: IGROV-1
[52] = system: DU-145
[53] = system: HOP-92
[54] = system: MDA-N
[55] = system: SNB-75
[56] = system: NCI-H522
[57] = system: SK-MEL-2
[58] = system: OVCAR-3
[59] = system: NCI-H226

CC1=NN(c2nc(N)nc(/C(C#N)=C\c3cccc([N+](=O)[O-])c3)n2)C(C)(C)C1
GI50 [1]: 5.65 µM (inactive) | GI50 [2]: 20.7 µM (inactive) | GI50 [3]: 12.4 µM (inactive) | GI50 [4]: 24.4 µM (inactive) | GI50 [5]: 12.3 µM (inactive) | GI50 [6]: 29.9 µM (inactive) | GI50 [7]: 10 µM (inactive) | GI50 [8]: 11.2 µM (inactive) | GI50 [9]: 0.205 µM (active) | GI50 [10]: 25.2 µM (inactive) | GI50 [11]: 11.5 µM (inactive) | GI50 [12]: 34.6 µM (inactive) | GI50 [13]: 14.9 µM (inactive) | GI50 [14]: 10.8 µM (inactive) | GI50 [15]: 8.75 µM (inactive) | GI50 [16]: 10.7 µM (inactive) | GI50 [17]: 11.7 µM (inactive) | GI50 [18]: 16.9 µM (inactive) | GI50 [19]: 5.13 µM (inactive) | GI50 [20]: 19.1 µM (inactive) | GI50 [21]: 18.5 µM (inactive) | GI50 [22]: 10.1 µM (inactive) | GI50 [23]: 19.6 µM (inactive) | GI50 [24]: 18.8 µM (inactive) | GI50 [25]: 6.78 µM (inactive) | GI50 [26]: 14.9 µM (inactive) | GI50 [27]: 5.19 µM (inactive) | GI50 [28]: 9.29 µM (inactive) | GI50 [29]: 15.8 µM (inactive) | GI50 [30]: 30.1 µM (inactive) | GI50 [31]: 6.58 µM (inactive) | GI50 [32]: 5.32 µM (inactive) | GI50 [33]: 11.9 µM (inactive) | GI50 [34]: 13.2 µM | GI50 [35]: 4.31 µM (inactive) | GI50 [36]: 7.13 µM (inactive) | GI50 [37]: 6.82 µM (inactive) | GI50 [38]: 20 µM (inactive) | GI50 [39]: 11 µM (inactive) | GI50 [40]: 15.7 µM (inactive) | GI50 [41]: 10.4 µM (inactive) | GI50 [42]: 20.5 µM (inactive) | GI50 [43]: 8.2 µM (inactive) | GI50 [44]: 12.2 µM (inactive) | GI50 [45]: > 23 µM (inactive) | GI50 [46]: 10.2 µM (inactive) | GI50 [47]: 10.8 µM (inactive) | GI50 [48]: 7.29 µM (inactive) | GI50 [49]: > 20.7 µM (inactive) | GI50 [50]: 11.9 µM (inactive) | GI50 [51]: 5.05 µM (inactive) | GI50 [52]: 12.7 µM (inactive) | GI50 [53]: > 24.4 µM (inactive) | GI50 [54]: 13.2 µM (inactive) | GI50 [55]: 6.68 µM (inactive) | GI50 [56]: 2.92 µM (inactive) | GI50 [57]: 16.4 µM (inactive) | GI50 [58]: 6.76 µM (inactive)

CC1=C(C(=O)N[C@@H](CC(C)C)C(=O)O)N2C(=O)[C@@H](NC(=O)C(N)c3ccccc3)[C@H]2SC1 (stereo partly drawn)
GI50 [1]: > 100 µM (inactive) | GI50 [2]: > 100 µM (inactive) | GI50 [3]: > 100 µM (inactive) | GI50 [4]: > 100 µM (inactive) | GI50 [5]: > 100 µM (inactive) | GI50 [6]: > 100 µM (inactive) | GI50 [7]: > 100 µM (inactive) | GI50 [8]: > 100 µM (inactive) | GI50 [9]: > 100 µM (inactive) | GI50 [10]: > 100 µM (inactive) | GI50 [11]: > 100 µM (inactive) | GI50 [12]: > 100 µM (inactive) | GI50 [13]: > 100 µM (inactive) | GI50 [14]: > 100 µM (inactive) | GI50 [15]: > 100 µM (inactive) | GI50 [16]: > 100 µM (inactive) | GI50 [18]: > 100 µM (inactive) | GI50 [20]: > 100 µM (inactive) | GI50 [21]: > 100 µM (inactive) | GI50 [23]: 79.3 µM (inactive) | GI50 [24]: > 100 µM (inactive) | GI50 [25]: > 100 µM (inactive) | GI50 [26]: > 100 µM (inactive) | GI50 [27]: > 100 µM (inactive) | GI50 [28]: > 100 µM (inactive) | GI50 [29]: > 100 µM (inactive) | GI50 [30]: > 100 µM (inactive) | GI50 [59]: 60.4 µM (inactive) | GI50 [31]: > 100 µM (inactive) | GI50 [34]: > 100 µM | GI50 [35]: > 100 µM (inactive) | GI50 [36]: > 100 µM (inactive) | GI50 [37]: > 100 µM (inactive) | GI50 [38]: > 100 µM (inactive) | GI50 [39]: > 100 µM (inactive) | GI50 [40]: > 100 µM (inactive) | GI50 [42]: > 100 µM (inactive) | GI50 [43]: > 100 µM (inactive) | GI50 [44]: > 100 µM (inactive) | GI50 [45]: > 100 µM (inactive) | GI50 [46]: > 100 µM (inactive) | GI50 [47]: > 100 µM (inactive) | GI50 [48]: > 100 µM (inactive) | GI50 [49]: > 100 µM (inactive) | GI50 [50]: > 100 µM (inactive) | GI50 [51]: > 100 µM (inactive) | GI50 [52]: > 100 µM (inactive) | GI50 [53]: > 100 µM (inactive) | GI50 [54]: > 100 µM (inactive) | GI50 [55]: > 100 µM (inactive) | GI50 [56]: > 100 µM (inactive) | GI50 [57]: > 100 µM (inactive) | GI50 [58]: > 100 µM (inactive)

COC(=O)C1OC(O[C@H]2CC[C@]3(C)[C@H]4CC=C5[C@@H]6CC(C)(C)CC[C@]6(C(=O)OC)CC[C@@]5(C)[C@]4(C)CC[C@H]3C2(C)C)C(O)C(O)C1O (stereo partly drawn)
GI50 [1]: 20.1 µM (inactive) | GI50 [2]: 19.5 µM (inactive) | GI50 [3]: 8.85 µM (inactive) | GI50 [4]: 14.6 µM (inactive) | GI50 [5]: 7.14 µM (inactive) | GI50 [6]: 12.4 µM (inactive) | GI50 [7]: 14.4 µM (inactive) | GI50 [8]: 16.5 µM (inactive) | GI50 [9]: 18.1 µM (inactive) | GI50 [10]: 13.1 µM (inactive) | GI50 [11]: 15.1 µM (inactive) | GI50 [12]: 11.4 µM (inactive) | GI50 [13]: 16.1 µM (inactive) | GI50 [14]: 15.2 µM (inactive) | GI50 [15]: 17 µM (inactive) | GI50 [16]: 17.8 µM (inactive) | GI50 [17]: 10.5 µM (inactive) | GI50 [18]: 21 µM (inactive) | GI50 [19]: 18 µM (inactive) | GI50 [20]: 18.5 µM (inactive) | GI50 [21]: 19.9 µM (inactive) | GI50 [22]: 11.9 µM (inactive) | GI50 [23]: 14.7 µM (inactive) | GI50 [24]: 15.8 µM (inactive) | GI50 [25]: 11.4 µM (inactive) | GI50 [26]: 7.52 µM (inactive) | GI50 [27]: 5.62 µM (inactive) | GI50 [28]: 4.45 µM (inactive) | GI50 [29]: 11.8 µM (inactive) | GI50 [30]: 3.72 µM (inactive) | GI50 [59]: 18.3 µM (inactive) | GI50 [31]: 6.73 µM (inactive) | GI50 [32]: 19.3 µM (inactive) | GI50 [33]: 20.2 µM (inactive) | GI50 [34]: 13.9 µM | GI50 [35]: 8.38 µM (inactive) | GI50 [36]: 6.67 µM (inactive) | GI50 [37]: 12.5 µM (inactive) | GI50 [38]: 16.2 µM (inactive) | GI50 [39]: 19.7 µM (inactive) | GI50 [41]: 12.3 µM (inactive) | GI50 [42]: 18.2 µM (inactive) | GI50 [44]: 7.76 µM (inactive) | GI50 [45]: 19.8 µM (inactive) | GI50 [46]: 15.1 µM (inactive) | GI50 [47]: 5.66 µM (inactive) | GI50 [48]: 13.6 µM (inactive) | GI50 [49]: 17.8 µM (inactive) | GI50 [50]: 14.9 µM (inactive) | GI50 [51]: 18 µM (inactive) | GI50 [52]: 14.5 µM (inactive) | GI50 [53]: 19.4 µM (inactive) | GI50 [54]: 17 µM (inactive) | GI50 [55]: 17.1 µM (inactive) | GI50 [56]: 15.4 µM (inactive) | GI50 [57]: 17.3 µM (inactive) | GI50 [58]: 4.34 µM (inactive)
